# Experimental data reported in the supplement of paper PMC10307832.
# Experiments:
# Assay in all cases: relative viability (nuclei count vs DMSO), 5 days (fraction); higher = more cells survive
# [1] = compound: CCC1=CN=CN=C1N2CCN(CC2)CC3=NC4=C(N3)C=C(C=C4)C(F)(F)F + NC(=O)Nc1cc(-c2cccc(F)c2)sc1C(=O)N[C@H]1CCCNC1 [AZD7762] (partner 0.2 µM)
# Summary of the method: (§1)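 Five library-drug doses in √10 steps were combined with a fixed anchor-drug dose, or a single drug was given alone, by pin tool to lung cancer cell lines in 1536-well plates the day after seeding. Nuclei were stained and counted after 5 days. Relative viability is the nuclei count in treated wells over that in vehicle wells, taken as the median of duplicate plates.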
# [2] = compound: CCC1=CN=CN=C1N2CCN(CC2)CC3=NC4=C(N3)C=C(C=C4)C(F)(F)F + O=C(CCCCCCC(=O)Nc1ccccc1)NO [Vorinostat] (partner 1 µM)
# Summary of the method: as §1
# [3] = compound: CCC1=CN=CN=C1N2CCN(CC2)CC3=NC4=C(N3)C=C(C=C4)C(F)(F)F + O=C(c1cc(Cc2n[nH]c(=O)c3ccccc23)ccc1F)N1CCN(C(=O)C2CC2)CC1 [Olaparib] (partner 8 µM)
# Summary of the method: as §1
# [4] = compound: CCn1c(-c2nonc2N)nc2cnc(Oc3cccc(NC(=O)c4ccc(OCCN5CCOCC5)cc4)c3)cc21 + O=C(CCCCCCC(=O)Nc1ccccc1)NO [Vorinostat] (partner 1 µM)
# Summary of the method: as §1
Cell Line,relative viability ([1]; first compound 0.04 µM),relative viability ([1]; first compound 0.1265 µM),relative viability ([1]; first compound 0.4 µM),relative viability ([1]; first compound 1.265 µM),relative viability ([1]; first compound 4 µM),relative viability ([2]; first compound 0.04 µM),relative viability ([2]; first compound 0.1265 µM),relative viability ([2]; first compound 0.4 µM),relative viability ([2]; first compound 1.265 µM),relative viability ([2]; first compound 4 µM),relative viability ([3]; first compound 0.04 µM),relative viability ([3]; first compound 0.1265 µM),relative viability ([3]; first compound 0.4 µM),relative viability ([3]; first compound 1.265 µM),relative viability ([3]; first compound 4 µM),relative viability ([4]; first compound 0.04 µM),relative viability ([4]; first compound 0.1265 µM),relative viability ([4]; first compound 0.4 µM),relative viability ([4]; first compound 1.265 µM),relative viability ([4]; first compound 4 µM)
NCI-H1975,0.662,0.744,0.713,0.645,0.746,0.796,0.703,0.704,0.654,0.687,0.9,0.729,0.735,0.718,0.667,0.666,0.623,0.554,0.37,0.273
NCI-H358,0.614,0.436,0.453,0.51,0.485,0.695,0.622,0.661,0.586,0.686,0.659,0.607,0.542,0.62,0.548,0.814,0.736,0.715,0.715,0.511
RERF-LC-KJ,0.795,0.953,0.976,0.97,0.952,0.638,0.717,0.715,0.634,0.704,0.975,0.95,0.954,0.849,0.885,0.762,0.728,0.589,0.409,0.521
NCI-H1792,0.666,0.66,0.527,–,0.685,–,–,–,–,–,0.895,0.406,0.369,–,0.399,–,–,–,–,–
NCI-H647,0.438,0.476,0.457,0.471,0.554,0.453,0.591,0.414,0.364,0.543,0.458,0.528,0.452,0.519,0.408,0.894,0.638,0.57,0.378,0.276
SK-LU-1,–,–,–,–,–,0.675,0.74,0.76,0.777,0.68,0.452,0.438,0.47,0.443,0.442,0.895,0.654,0.593,0.422,0.42
NCI-H441,1.29,1.15,1.03,1.15,1.21,0.777,0.8,0.659,0.651,0.868,0.459,0.543,0.543,0.458,0.529,1.04,0.705,0.87,0.502,0.47
COR-L 105,–,–,–,–,–,0.811,0.879,0.802,0.601,1.05,0.654,0.711,0.623,0.648,0.762,0.941,0.785,0.762,0.419,0.412
NCI-H1993,0.747,0.822,0.726,0.783,0.678,0.846,0.983,0.648,0.816,0.964,0.95,1.03,1.09,0.895,0.974,0.991,0.764,0.649,0.697,0.697
NCI-H1437,1.13,1.15,0.996,1.03,0.706,0.915,0.748,0.745,0.64,0.5,0.597,0.595,0.575,0.544,0.505,0.88,0.93,0.903,0.682,0.512
PC-14,0.317,0.337,0.338,0.387,0.395,0.764,0.756,0.688,0.691,0.657,0.231,0.275,0.29,0.25,0.261,0.912,0.612,0.64,0.554,0.62
NCI-H2023,–,–,–,–,–,0.561,0.575,0.649,0.556,0.776,0.53,0.48,0.493,0.418,0.46,1.02,0.675,0.669,0.429,0.334
EBC-1,–,–,–,–,–,–,–,–,–,–,0.691,0.644,0.688,0.675,0.699,–,–,–,–,–
NCI-H1650,–,–,–,–,–,0.635,0.73,0.503,0.359,0.636,0.682,0.797,0.708,0.642,0.907,0.666,0.59,0.562,0.596,0.528
SK-MES-1,–,–,–,–,–,1.11,1.04,1.01,1.03,1.08,0.657,0.643,0.684,0.592,0.673,1.22,0.968,0.868,0.819,0.597
NCI-H1299,–,–,–,–,–,–,–,–,–,–,0.942,0.969,0.975,0.982,0.949,–,–,–,–,–
A549,–,–,–,–,–,–,–,–,–,–,0.318,0.179,0.333,0.333,0.387,–,–,–,–,–
NCI-H1703,–,0.148,0.125,–,0.126,–,–,–,–,–,0.511,0.536,0.397,0.332,0.396,–,–,–,–,–
NCI-H2228,–,–,–,–,–,–,0.63,0.587,0.693,0.496,–,0.608,0.551,0.658,0.488,0.842,0.524,0.891,0.543,0.456
NCI-H2009,–,–,–,–,–,0.775,0.698,0.753,0.61,0.639,0.647,0.649,0.632,0.578,0.594,0.632,0.582,0.56,0.429,0.277
Calu-6,–,–,–,–,–,–,–,–,–,–,0.681,0.591,0.523,0.556,0.483,–,–,–,–,–
COR-L23,–,–,–,–,–,0.464,0.523,0.404,0.44,0.462,0.351,0.316,0.332,0.344,0.356,0.508,0.309,0.225,0.13,0.113
NCI-H520,–,–,–,–,–,0.854,0.684,0.663,0.576,0.591,0.291,0.415,0.349,0.333,0.298,0.957,0.856,0.774,0.478,0.297
